Values joined by “and” are separate entries in the source; they are usually repeats but may differ in a detail not shown here. Equal entries are not always repeated.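 Cultured in 96-well plates, cells were exposed to test compound for 48 hours across five concentrations. The concentration for 50% growth inhibition is given as GI50. TGI: concentration producing complete growth inhibition.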
Assays:
Experiment in all cases: growth of human tumour cells (NCI), 48 h
SK-MEL-28 melanoma = system: SK-MEL-28 melanoma
MOLT-4 leukemia = system: MOLT-4 leukemia
SK-OV-3 ovarian = system: SK-OV-3 ovarian
UACC-62 melanoma = system: UACC-62 melanoma
RXF 393 renal = system: RXF 393 renal
M14 melanoma = system: M14 melanoma
SF-268 CNS = system: SF-268 CNS
786-0 renal = system: 786-0 renal
IGROV1 ovarian = system: IGROV1 ovarian
EKVX NSCLC = system: EKVX NSCLC

| SMILES | GI50 (SK-MEL-28 melanoma) | TGI (SK-MEL-28 melanoma) | GI50 (MOLT-4 leukemia) | TGI (MOLT-4 leukemia) | GI50 (SK-OV-3 ovarian) | TGI (SK-OV-3 ovarian) | GI50 (UACC-62 melanoma) | TGI (UACC-62 melanoma) | GI50 (RXF 393 renal) | TGI (RXF 393 renal) | GI50 (M14 melanoma) | TGI (M14 melanoma) | GI50 (SF-268 CNS) | TGI (SF-268 CNS) | GI50 (786-0 renal) | TGI (786-0 renal) | GI50 (IGROV1 ovarian) | TGI (IGROV1 ovarian) | TGI (EKVX NSCLC) [µM] | GI50 (EKVX NSCLC) [µM] |
| --- | --- | --- | --- | --- | --- | --- | --- | --- | --- | --- | --- | --- | --- | --- | --- | --- | --- | --- | --- | --- |
| CCCCCc1c(C)[nH]c(/C=C2\N=C(c3ccc[nH]3)C=C2Oc2ccc(OC)cc2)c1C | 0.231 µM and 0.0512 µM | 0.904 µM and 0.281 µM | 0.107 µM and 0.0481 µM | 1.17 µM and 1.67 µM | 0.392 µM and 0.141 µM | 2.25 µM and 1.39 µM | 0.112 µM and 0.0271 µM | 0.272 µM and 0.0725 µM | 0.12 µM and 0.0294 µM | 0.567 µM and 0.244 µM | 0.167 µM and 0.0234 µM | 0.458 µM and 0.0635 µM | 0.154 µM and 0.0526 µM | 1.92 µM and 1.46 µM | 0.141 µM and 0.0404 µM | 0.328 µM and 0.315 µM | 0.244 µM and 0.0925 µM | 1.49 µM and 3.07 µM | – | – |
| O=C(N/C(=C\c1cc(Cl)ccc1Cl)c1nc2ccccc2[nH]1)c1ccccc1 | – | > 100 µM | – | 63.8 µM | – | > 100 µM | – | > 100 µM | – | 64.4 µM | – | 69.7 µM | – | > 100 µM | – | 35.7 µM | – | – | > 100 | – |
| COc1ccc(-c2cc(-c3ccco3)c(C#N)c(=O)n2C2OC(OC(=O)c3ccccc3)C(OC(=O)c3ccccc3)C2OC(=O)c2ccccc2)cc1 (centres undefined) | – | > 100 µM | – | > 100 µM | – | – | – | – | – | 63.7 µM | – | > 100 µM | – | – | – | > 100 µM | – | > 100 µM | > 100 | – |
| O=C1/C=C(/c2ccc(O)cc2)[C@H](O)Cc2ccc(OC3OC(CO)C(O)C(O)C3O)cc2O1 (some centres undefined) (tested in a mixture with another compound) | – | – | – | – | – | > 100 µM | – | > 100 µM | – | – | – | > 100 µM | – | > 100 µM | – | > 100 µM | – | > 100 µM | > 100 | – |
| O=C1c2cc(Br)ccc2-c2c1c1ccccc1c(=O)n2CCCCl | – | – | 3.07 µM | 8.6 µM | 29.3 µM | > 100 µM | 5.65 µM | 22.3 µM | – | – | 13.2 µM | > 100 µM | 41.2 µM | > 100 µM | 7.95 µM | 26.2 µM | – | – | > 100 | 94.3 |
| CC(CC(C)[C@H]1CCC2[C@H]3C(CC[C@@]21C)[C@@]1(C)CCC(O)C[C@H]1C[C@@H]3O)C(=O)O (some centres undefined) | – | > 100 µM | – | > 100 µM | – | – | – | > 100 µM | – | > 100 µM | – | > 100 µM | – | > 100 µM | – | > 100 µM | – | > 100 µM | > 100 | – |
| O=C(c1ccc(Cl)cc1)N(C(=S)N1CCN(c2ccccc2)CC1)C1CCCCC1 | – | > 100 µM | – | > 100 µM | – | > 100 µM | – | > 100 µM | – | > 100 µM | – | > 100 µM | – | > 100 µM | – | > 100 µM | – | > 100 µM | – | – |
| Cc1cc(CC(O)(C(F)(F)F)C(F)(F)F)cc(CC(O)(C(F)(F)F)C(F)(F)F)n1 | – | 9.54 µM | – | 13.2 µM | – | – | – | 12.5 µM | – | 14.9 µM | – | 12 µM | – | 10.1 µM | – | 6.66 µM | – | 11.2 µM | 10.8 | – |
| CC(=O)O/N=C1\C=Cc2c(no[n+]2[O-])C1=O | – | 36.9 µM | – | 36.6 µM | – | – | – | 30.2 µM | – | 28.5 µM | – | 33.2 µM | – | 38.1 µM | – | 33.5 µM | – | 30.3 µM | 31.5 | – |
| CC(=O)NC1=NC(=O)/C(=C/c2ccc(Cl)cc2Cl)N1C | – | – | – | 81.4 µM | – | > 100 µM | – | 88.2 µM | – | > 100 µM | – | > 100 µM | – | > 100 µM | – | > 100 µM | – | > 100 µM | 50.7 | – |
| CCOC(=O)C(=C=Cc1cccs1)C(=O)c1ccccc1 | – | 28 µM | – | 48.5 µM | – | 62.8 µM | – | 30.3 µM | – | – | – | 28.2 µM | – | 33.2 µM | – | 29.5 µM | – | 34.6 µM | 31 | – |
| COc1cc(OC)cc(-c2n[nH]nc2-c2ccc3c(c2)OCO3)c1 | 4.44 µM | 43.5 µM | 0.572 µM | 51.8 µM | 0.486 µM | 93.2 µM | 3.09 µM | 30.8 µM | – | – | 0.0948 µM | 12 µM | 2.37 µM | > 100 µM | 0.618 µM | 63.5 µM | 0.432 µM | > 100 µM | – | – |
| C=CC[n+]1c(/C=C2\Sc3ccccc3N2C)sc(-c2ccccc2)c1-c1ccccc1 | 0.421 µM | 7.72 µM | 0.431 µM | 4.29 µM | 0.296 µM | 0.92 µM | – | – | 0.519 µM | 8.94 µM | 0.373 µM | 1.59 µM | 0.405 µM | 15.6 µM | 0.419 µM | 11.1 µM | 0.45 µM | 13.7 µM | 12.9 | 0.478 |
| O=C(/C=C/c1ccccc1O)CC(=O)/C=C/c1ccccc1O | – | > 31.6 µM | – | > 31.6 µM | – | – | – | 7.58 µM | – | 9.06 µM | – | > 31.6 µM | – | – | – | 16.1 µM | – | 25.7 µM | 31.3 | – |
| CC(C)OCC(O)COc1cc(=O)oc2ccccc12 (centres undefined) | – | > 100 µM | – | > 100 µM | – | > 100 µM | – | > 100 µM | – | – | – | > 100 µM | – | > 100 µM | – | > 100 µM | – | > 100 µM | > 100 | – |
| COc1cc(C=C2C(=O)OC(C)(C)OC2=O)cc(OC)c1OC | – | > 100 µM | – | > 100 µM | – | > 100 µM | – | > 100 µM | – | > 100 µM | – | > 100 µM | – | > 100 µM | – | > 100 µM | – | – | > 100 | – |
| CCCCC#Cc1c(I)n(C2OC(CO[Si](C)(C)C(C)(C)C)C3OC(C)(C)OC32)c(=O)[nH]c1=O (centres undefined) | 1.84 µM | 4.3 µM | 1.77 µM | 4.34 µM | – | – | 11.8 µM | 24 µM | 1.5 µM | 5.46 µM | 17.6 µM | 34.8 µM | 10.3 µM | 22.4 µM | 15.4 µM | 29 µM | 3.32 µM | 15.4 µM | 28.7 | 15.3 |
| COC(=O)C1=C(O)C(C(=O)OC)[C@@]2(O)[C@@H](C(=O)OC)C(c3ccccc3C(F)(F)F)C[C@@H]1[C@@H]2C(=O)OC (some centres undefined) | 2.13 µM | 14.5 µM | 1.88 µM | 6.97 µM | 1.58 µM | 7 µM | 4.09 µM | 15 µM | 3.11 µM | 7.65 µM | 13.9 µM | 47.4 µM | 12.2 µM | 30.3 µM | 4.49 µM | 16.4 µM | – | – | 19.4 | 6.36 |
| COC1=C(C(=O)OC(C)(C)C)C23CCCCC2(C(C(=O)OC(C)(C)C)=C(OC)C3C(=O)OC(C)(C)C)C1C(=O)OC(C)(C)C (centres undefined) | – | – | – | 44.4 µM | – | > 100 µM | – | > 100 µM | – | > 100 µM | – | > 100 µM | – | > 100 µM | – | > 100 µM | – | > 100 µM | > 100 | – |

— PubChem BioAssay (NCI)
